This note sets out measurements from patent US20240024216A1, “METHODS AND MATERIALS FOR TREATING HAIR LOSS” (The Penn State Research Foundation, priority 2021, published 2024).

This test concerns C57BL/6 mice. Description: Full thickness excisional splinted wound model: wound closure and histomorphometry. The test is classed as in vivo. Particulars: for wound closure: daily systemic 4-AP. From the text:
The effect of 4-AP in promoting cutaneous wound healing and tissue regeneration was investigated using a full thickness excisional wound model (FIG. 3A). Excisional wounds (5 mm) were splinted with silicone rings to prevent wound contraction, in 10-wk-old male C57BL/6 mice, which were then randomized and treated with either saline or systemic 4-AP (dosage to correspond to human dosage) daily for 14 days. Wounds were monitored by digital imaging for morphometry, percentage of wound healing, and tissue regeneration on days 3, 5, 7, 9, 12 and 14 post wound (PWD) (when tissue was harvested).
Male C57BL/6 (10 week) mice were purchased from the Jackson Laboratory (Bar Harbor, ME USA). Mice were anesthetized by intraperitoneal injection of ketamine (60 mg/kg) and xylazine (4 mg/kg) body weight, and the dorsal skin hair was removed using mechanical shaver and then, applied the hair removal cream. Skin was disinfected using 70% ethanol and betadine for 3 times. The dorsal skin was folded and raised cranially and caudally at midline using index fingers and thumbs, and place the animal in a lateral position and two 5-mm wounds created in their dorsal skin using sterile biopsy punch. A 5-mm-diameter silicone ring was then placed and sutured around the each wound to restrict contraction. After wound creation and sutured silicone ring, wound site was photographed, and wound surface was covered with a Tegaderm (3M) sterile transparent dressing. After surgery, mice was administered SR Buprenorphine (0.05 mg/kg) as a post-operative analgesia. The mice were randomized into the following two groups: a control group (vehicle control), which received 100 μl of saline, and a 4-AP group. In total […]/mouse/daily 4-AP in 90-110 μl of saline intraperitoneally (IP) was administered until day 14 post wound. Digital imaging of the wound was used was determined for each wound healing by quantification of wound area based on digital pictures taken from day 0 to day 14 (days 0, 3, 5, 7, 9, 12 and 14) post-surgery (FIG. 3A). Wound areas were measured in pixel using ImageJ-1.53e software (National Institutes of Health, USA) and normalized/corrected each wound area with reference scale and wound healing expressed as percentage with respect to day 0 wound, using following formula.
At the day 14 wound skin sample were collected after mice were euthanized using CO2 and skin samples were excised, either flash frozen or fixed in a buffered 4% formaldehyde solution at 4° C., overnight for samples to be embedded in paraffin and the wound skin paraffin blocks were processed into serially cut into […] sections on a Microtome (Leica RM2235, Germany). The wound skin sections were used for morphometric analysis and immunofluorescence staining. […] sectioned wound skin samples of day 14 were sections were deparaffinised using xylene and ethyl alcohol and stained with hematoxylin and eosin (H&E). To evaluate the epidermis thickness, and wound induced hair follicle formation, four randomly fields of each H&E-stained sections were imaged under a light microscope (Olympus BX53, Olympus, Tokyo, Japan) at 1000 magnification. The values of each mice were averaged, and then groups were compared. To measure the wound induced hair follicles, similar to above procedure, the number of hair follicles at dermis were counted and then average value calculated for each group. To understand the collagen formation, maturation and deposition Masson's trichome analysis were performed as per manufacture instructions (Sigma-Aldrich, Catalog No.: HT15-1KT).

Regarding `Nc1ccncc1` [4-AP, 4-aminopyridine], the re-epithelialization of wound entry (by day 14) is given as “completely re-epithelialized”. Moreover, the wound closure worked out at 22.35±0.30% (day 3 post wound) and 98.24±0.10% (day 14 post wound). Further, the “collagen deposition in dermis (Masson's Trichrome)” value (day 14, compared to saline) is listed as “elevated collagen deposition”. Besides, the “fold increase in WIHN” value (day 14, vs saline-treated mice) is on record as 1.8 fold. Besides, the thickness of newly formed epidermis (H&E) (day 14 wound tissue) stood at 29.7 ± 1.3 µm. Besides, the “mean number of hair follicles (wound-induced hair neogenesis)” value (day 14 wound tissue, H&E) is on record as 45.
